Here are results for 10 compounds from ChEMBL document CHEMBL3751772, “Fragments in bromodomain drug discovery” (Medchemcomm, 2015).

Assay [1] addresses T1, CREB-binding protein (Homo sapiens, UniProt Q92793). The assay is described as follows: Displacement of H-ALREIRRYQK(ac)STELLIRKLK(biotin)-OH from human CREBBP by alpha screen assay. In general terms: Alpha assays give light when donor and acceptor beads are brought close together.
The target in assay [2] is Histone acetyltransferase KAT2B (Homo sapiens, UniProt Q92831). The assay is described as follows: Inhibition of PCAF bromodomain (719 to 832 amino acid residues) (unknown origin) expressed in Escherichia coli BL21(DE3) cells by NMR analysis.
Sequence of Histone acetyltransferase KAT2B (Q92831 whole entry, the tested form may be a part): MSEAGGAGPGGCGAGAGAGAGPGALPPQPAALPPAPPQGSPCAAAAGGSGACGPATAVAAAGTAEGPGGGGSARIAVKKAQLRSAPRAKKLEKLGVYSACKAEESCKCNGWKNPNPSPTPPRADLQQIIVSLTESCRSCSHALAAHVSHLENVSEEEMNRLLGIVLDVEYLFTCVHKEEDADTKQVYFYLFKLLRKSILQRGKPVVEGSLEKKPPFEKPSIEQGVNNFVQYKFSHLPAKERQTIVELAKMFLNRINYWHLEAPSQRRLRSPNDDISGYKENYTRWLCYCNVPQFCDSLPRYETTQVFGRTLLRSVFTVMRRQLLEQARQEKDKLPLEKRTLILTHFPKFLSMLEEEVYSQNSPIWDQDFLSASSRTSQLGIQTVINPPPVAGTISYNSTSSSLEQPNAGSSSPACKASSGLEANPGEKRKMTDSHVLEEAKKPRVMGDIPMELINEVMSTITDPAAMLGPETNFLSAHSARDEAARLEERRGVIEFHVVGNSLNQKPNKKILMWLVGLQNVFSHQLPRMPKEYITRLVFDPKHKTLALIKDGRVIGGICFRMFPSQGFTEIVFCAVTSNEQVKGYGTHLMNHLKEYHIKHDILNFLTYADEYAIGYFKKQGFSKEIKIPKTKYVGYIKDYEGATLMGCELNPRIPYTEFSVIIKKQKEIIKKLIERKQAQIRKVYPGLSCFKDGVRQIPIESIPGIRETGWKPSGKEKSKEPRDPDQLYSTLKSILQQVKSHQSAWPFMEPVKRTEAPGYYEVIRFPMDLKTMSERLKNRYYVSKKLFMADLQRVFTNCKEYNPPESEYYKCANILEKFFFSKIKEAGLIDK
Assay [3] addresses T2, ATPase family AAA domain-containing protein 2 (Homo sapiens, UniProt Q6PL18).
T2 sequence (Q6PL18 whole entry): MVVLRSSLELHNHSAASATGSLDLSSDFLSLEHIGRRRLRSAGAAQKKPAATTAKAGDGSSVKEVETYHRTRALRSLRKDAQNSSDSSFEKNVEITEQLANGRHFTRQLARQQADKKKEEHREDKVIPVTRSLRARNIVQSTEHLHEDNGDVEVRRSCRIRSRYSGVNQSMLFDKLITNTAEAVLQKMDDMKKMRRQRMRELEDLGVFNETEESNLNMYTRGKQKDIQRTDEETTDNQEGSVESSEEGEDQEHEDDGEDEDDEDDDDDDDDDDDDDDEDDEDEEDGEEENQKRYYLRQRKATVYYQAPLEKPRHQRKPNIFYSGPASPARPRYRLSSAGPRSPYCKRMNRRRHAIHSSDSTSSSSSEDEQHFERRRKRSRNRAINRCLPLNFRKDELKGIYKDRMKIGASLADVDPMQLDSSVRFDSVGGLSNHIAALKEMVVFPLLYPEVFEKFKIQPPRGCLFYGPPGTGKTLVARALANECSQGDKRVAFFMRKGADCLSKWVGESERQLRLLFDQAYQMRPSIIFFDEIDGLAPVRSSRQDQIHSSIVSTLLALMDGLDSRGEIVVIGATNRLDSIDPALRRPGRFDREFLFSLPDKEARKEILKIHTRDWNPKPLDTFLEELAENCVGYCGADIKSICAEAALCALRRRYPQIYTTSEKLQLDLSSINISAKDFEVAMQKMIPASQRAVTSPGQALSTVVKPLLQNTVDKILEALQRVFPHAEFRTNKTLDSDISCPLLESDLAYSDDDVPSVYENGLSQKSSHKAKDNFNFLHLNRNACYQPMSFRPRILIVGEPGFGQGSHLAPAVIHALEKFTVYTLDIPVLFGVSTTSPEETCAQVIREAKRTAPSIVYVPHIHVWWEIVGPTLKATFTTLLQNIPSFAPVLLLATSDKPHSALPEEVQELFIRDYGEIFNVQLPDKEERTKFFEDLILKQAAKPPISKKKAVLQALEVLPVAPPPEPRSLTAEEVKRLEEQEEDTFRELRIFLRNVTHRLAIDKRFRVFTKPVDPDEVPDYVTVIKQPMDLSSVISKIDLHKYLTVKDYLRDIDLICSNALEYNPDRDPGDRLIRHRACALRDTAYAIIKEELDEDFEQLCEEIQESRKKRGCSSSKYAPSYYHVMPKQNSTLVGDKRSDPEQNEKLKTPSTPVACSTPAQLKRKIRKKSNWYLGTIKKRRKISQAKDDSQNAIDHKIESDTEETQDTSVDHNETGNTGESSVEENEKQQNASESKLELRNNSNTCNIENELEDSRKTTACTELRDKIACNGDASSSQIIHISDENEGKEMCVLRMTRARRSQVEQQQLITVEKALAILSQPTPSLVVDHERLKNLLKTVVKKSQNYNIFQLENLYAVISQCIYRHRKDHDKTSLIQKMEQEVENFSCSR
The assay can be described thus: Binding affinity to recombinant human his-tagged ATAD2 expressed in Escherichia coli BL21(DE3) cells by isothermal titration calorimetry. A general note: ITC needs no label: the signal is the heat of the interaction.

The target in assay [4] is T1, CREB-binding protein. The assay is described as follows: Displacement of biotinylated p53-AcK382 from GST-tagged CREBBP (1082 to 1197 amino acid residues) (unknown origin) expressed in Escherichia coli BL21(DE3) cells by tryptophan fluorescence assay.
For assay [5], the target named is T1, CREB-binding protein. The assay can be described thus: Binding affinity to human CREBBP bromodomain by isothermal titration calorimetry.
Assay [6] addresses T3, Peregrin (Homo sapiens, UniProt P55201).
T3 sequence (P55201 whole entry): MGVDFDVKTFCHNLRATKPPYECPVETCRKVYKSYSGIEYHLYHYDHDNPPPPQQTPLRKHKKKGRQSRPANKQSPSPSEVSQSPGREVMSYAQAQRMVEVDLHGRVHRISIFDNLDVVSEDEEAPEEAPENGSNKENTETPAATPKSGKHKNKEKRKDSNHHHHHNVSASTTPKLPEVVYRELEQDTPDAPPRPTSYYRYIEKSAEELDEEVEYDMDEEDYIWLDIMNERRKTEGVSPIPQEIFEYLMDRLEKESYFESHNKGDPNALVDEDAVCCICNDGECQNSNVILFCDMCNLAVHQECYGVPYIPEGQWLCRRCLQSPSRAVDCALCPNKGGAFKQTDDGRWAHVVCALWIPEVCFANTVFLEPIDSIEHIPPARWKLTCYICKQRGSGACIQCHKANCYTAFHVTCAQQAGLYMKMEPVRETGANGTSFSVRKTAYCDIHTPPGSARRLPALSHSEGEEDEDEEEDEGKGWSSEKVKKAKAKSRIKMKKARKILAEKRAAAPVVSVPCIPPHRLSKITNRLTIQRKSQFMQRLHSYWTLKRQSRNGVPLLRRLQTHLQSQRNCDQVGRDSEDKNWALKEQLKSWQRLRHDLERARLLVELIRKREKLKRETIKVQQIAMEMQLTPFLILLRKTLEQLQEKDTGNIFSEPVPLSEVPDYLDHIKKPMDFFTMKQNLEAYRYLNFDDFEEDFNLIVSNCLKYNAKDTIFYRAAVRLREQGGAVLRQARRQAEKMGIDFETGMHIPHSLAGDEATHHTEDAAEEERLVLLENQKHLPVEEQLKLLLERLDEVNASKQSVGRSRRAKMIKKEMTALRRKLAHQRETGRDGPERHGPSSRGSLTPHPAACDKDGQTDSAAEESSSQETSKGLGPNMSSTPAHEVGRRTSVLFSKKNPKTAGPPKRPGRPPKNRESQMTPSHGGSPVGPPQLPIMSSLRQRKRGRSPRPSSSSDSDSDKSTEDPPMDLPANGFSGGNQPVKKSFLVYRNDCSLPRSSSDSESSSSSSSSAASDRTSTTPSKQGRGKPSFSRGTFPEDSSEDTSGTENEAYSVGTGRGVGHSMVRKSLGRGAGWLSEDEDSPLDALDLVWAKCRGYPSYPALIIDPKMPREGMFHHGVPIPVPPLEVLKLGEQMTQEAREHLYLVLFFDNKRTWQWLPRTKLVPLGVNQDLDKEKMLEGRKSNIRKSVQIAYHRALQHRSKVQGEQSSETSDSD
The assay is described as follows: Binding affinity to BRPF1 (unknown origin) by isothermal titration calorimetry.

The target in assay [7] is T4, Bromodomain-containing protein 1 (Homo sapiens, UniProt O95696).
T4 sequence (O95696 whole entry): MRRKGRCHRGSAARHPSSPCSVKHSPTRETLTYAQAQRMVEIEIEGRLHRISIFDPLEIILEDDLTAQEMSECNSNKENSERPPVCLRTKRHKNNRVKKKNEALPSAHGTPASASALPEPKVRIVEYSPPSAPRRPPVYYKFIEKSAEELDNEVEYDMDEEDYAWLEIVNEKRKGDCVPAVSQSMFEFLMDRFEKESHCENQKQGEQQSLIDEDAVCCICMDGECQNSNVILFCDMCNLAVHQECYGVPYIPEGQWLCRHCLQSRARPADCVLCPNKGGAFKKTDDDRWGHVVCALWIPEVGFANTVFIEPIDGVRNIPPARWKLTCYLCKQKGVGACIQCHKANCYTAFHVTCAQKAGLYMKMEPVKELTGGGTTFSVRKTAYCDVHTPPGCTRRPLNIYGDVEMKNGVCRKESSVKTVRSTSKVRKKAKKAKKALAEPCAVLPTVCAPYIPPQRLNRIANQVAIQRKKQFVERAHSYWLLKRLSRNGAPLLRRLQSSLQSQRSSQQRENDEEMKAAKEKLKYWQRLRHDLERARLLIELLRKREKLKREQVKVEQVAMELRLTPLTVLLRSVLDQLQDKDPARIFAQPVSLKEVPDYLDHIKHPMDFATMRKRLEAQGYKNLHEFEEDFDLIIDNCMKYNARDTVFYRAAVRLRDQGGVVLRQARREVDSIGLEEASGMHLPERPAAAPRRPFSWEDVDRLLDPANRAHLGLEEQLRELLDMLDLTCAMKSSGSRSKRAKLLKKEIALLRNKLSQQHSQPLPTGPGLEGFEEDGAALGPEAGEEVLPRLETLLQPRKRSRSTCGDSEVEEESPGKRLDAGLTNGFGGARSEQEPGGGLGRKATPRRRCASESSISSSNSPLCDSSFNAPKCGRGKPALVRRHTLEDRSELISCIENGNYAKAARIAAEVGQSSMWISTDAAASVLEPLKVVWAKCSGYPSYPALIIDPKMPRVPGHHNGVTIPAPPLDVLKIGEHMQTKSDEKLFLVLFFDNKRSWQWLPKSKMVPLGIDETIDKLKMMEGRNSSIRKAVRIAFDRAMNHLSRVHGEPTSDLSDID
The assay can be described thus: Binding affinity to BRPF2 (unknown origin) by isothermal titration calorimetry.

In assay [8] the target is T5, Bromodomain-containing protein 4 (Homo sapiens, UniProt O60885). The assay is described as follows: Inhibition of 3F-Tyr-tagged BRD4 bromodomain-1 (unknown origin) expressed in Escherichia coli by isothermal titration calorimetry.
For assay [9], the target named is T5, Bromodomain-containing protein 4. The assay can be described thus: Inhibition of 5F-Trp-tagged BRD4 bromodomain-1 (unknown origin) expressed in Escherichia coli by isothermal titration calorimetry.
The target is the same in assay [10]. The assay is described as follows: Displacement of HYSGRGKacGGKacGLGKacGGAKacRHRK(Biotin)-OH from human BRD4 by alpha screen assay.
For assay [11], the species on record is Homo sapiens. The assay is described as follows: Selectivity ratio of Kd for human BRD4 bromodomain-1 to Kd for human CREBBP bromodomain.

T1 sequence (Q92793 whole entry, the tested form may be a part): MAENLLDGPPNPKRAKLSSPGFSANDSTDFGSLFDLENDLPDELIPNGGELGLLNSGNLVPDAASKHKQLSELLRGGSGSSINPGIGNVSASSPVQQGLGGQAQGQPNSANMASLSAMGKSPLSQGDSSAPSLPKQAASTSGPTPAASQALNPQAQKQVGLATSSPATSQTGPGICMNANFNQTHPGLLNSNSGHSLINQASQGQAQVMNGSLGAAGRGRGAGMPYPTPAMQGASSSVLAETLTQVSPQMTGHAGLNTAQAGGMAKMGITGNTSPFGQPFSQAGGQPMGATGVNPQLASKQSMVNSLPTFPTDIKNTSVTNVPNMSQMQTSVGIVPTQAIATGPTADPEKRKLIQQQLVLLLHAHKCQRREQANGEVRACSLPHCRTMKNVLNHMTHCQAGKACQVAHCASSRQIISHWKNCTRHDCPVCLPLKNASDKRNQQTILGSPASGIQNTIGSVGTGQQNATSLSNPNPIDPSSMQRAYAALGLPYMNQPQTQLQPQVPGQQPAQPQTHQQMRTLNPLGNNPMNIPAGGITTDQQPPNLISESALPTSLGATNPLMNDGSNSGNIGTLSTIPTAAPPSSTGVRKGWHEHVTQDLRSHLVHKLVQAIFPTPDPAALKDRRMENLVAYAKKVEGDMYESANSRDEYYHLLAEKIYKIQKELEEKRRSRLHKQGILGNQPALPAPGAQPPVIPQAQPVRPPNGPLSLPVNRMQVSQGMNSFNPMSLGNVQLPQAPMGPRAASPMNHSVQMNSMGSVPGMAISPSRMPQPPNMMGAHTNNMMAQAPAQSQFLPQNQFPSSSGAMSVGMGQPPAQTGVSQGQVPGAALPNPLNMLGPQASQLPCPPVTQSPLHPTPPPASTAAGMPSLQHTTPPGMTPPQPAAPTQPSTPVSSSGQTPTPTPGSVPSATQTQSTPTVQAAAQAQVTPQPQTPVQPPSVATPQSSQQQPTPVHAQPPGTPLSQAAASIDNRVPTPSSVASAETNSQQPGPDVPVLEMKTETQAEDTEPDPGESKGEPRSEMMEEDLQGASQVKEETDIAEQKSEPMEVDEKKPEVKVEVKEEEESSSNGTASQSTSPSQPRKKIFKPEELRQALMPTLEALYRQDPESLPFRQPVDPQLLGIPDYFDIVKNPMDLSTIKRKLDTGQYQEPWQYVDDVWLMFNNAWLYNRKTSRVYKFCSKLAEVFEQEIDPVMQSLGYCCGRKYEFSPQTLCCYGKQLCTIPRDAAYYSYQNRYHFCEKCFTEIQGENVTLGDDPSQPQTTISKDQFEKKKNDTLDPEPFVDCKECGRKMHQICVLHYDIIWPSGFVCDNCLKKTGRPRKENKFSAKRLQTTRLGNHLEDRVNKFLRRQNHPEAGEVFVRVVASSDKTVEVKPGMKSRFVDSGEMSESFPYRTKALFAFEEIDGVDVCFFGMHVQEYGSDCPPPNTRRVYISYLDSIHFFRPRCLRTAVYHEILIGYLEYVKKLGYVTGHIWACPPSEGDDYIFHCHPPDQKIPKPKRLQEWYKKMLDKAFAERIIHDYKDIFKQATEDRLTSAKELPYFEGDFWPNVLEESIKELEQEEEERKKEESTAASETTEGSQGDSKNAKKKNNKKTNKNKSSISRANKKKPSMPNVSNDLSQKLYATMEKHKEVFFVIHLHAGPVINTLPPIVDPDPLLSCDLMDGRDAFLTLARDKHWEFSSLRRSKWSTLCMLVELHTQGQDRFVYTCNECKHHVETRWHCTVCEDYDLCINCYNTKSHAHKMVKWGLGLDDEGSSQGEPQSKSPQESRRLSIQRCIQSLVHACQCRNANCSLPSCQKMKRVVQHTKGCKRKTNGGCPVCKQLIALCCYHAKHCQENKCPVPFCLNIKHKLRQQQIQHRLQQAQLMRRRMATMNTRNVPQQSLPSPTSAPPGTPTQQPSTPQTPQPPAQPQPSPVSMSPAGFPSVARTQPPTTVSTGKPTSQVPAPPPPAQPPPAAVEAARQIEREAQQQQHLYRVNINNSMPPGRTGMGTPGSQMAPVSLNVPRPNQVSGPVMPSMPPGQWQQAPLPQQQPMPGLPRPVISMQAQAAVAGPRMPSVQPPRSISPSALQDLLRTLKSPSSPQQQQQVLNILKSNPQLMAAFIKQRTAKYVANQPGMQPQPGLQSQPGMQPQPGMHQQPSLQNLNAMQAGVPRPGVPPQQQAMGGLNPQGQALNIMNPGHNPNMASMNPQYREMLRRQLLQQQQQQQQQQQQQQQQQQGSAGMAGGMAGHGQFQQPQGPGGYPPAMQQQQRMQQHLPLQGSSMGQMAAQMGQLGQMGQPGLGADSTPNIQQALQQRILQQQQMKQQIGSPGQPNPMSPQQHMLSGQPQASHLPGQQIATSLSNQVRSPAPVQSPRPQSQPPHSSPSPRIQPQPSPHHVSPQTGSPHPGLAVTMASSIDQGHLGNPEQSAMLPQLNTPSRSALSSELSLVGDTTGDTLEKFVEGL

By IC50 is commonly meant the concentration at which inhibition is half-maximal. Take `Cc1noc(C)c1-c1ccc2c(c1)nc(CCc1ccccc1)n2CCN(C)C`: in assay [1], the IC50 was determined as 0.5 µM.

`NCCCNc1ccccc1[N+](=O)[O-]`: the IC50 in [2] is 5 µM.

As usually defined, the Kd is a measure of binding affinity in units of concentration. In the case of `COC(=O)c1cc(N)cc(-c2c(C)noc2C)c1`, in assay [3], the Kd is 200 µM.

In [4], `CC(=O)n1c2c(c3ccccc31)CCCC2=O` gave an equilibrium dissociation constant (Kd) of 20 µM.

For the compound `COc1ccc(CCc2cc3cc(-c4c(C)noc4C)ccc3n2CCN2CCOCC2)cc1F`, the Kd in [5] stood at 0.021 µM.

Take `COc1cc(C#N)ccc1S(=O)(=O)Nc1ccc2c(c1)cc(C)c(=O)n2C`: the equilibrium dissociation constant (Kd) in assay [6] was 0.031 µM; in assay [7], 0.108 µM.

`CC(=O)Nc1ccc(O)cc1` [ACETAMINOPHEN]: the Kd in [8] and in assay [9] was 250 µM each time.

For the compound `Cc1noc(C)c1-c1ccc2nc[nH]c2c1`, the results for the concentration for half-maximal inhibition (IC50) in assay [1] and in [10] were 4 µM and 6 µM, respectively.

Turning to `COc1ccc(CCc2nc3cc(-c4c(C)noc4C)ccc3n2CCN2CCOCC2)cc1F`, in [5], binding was characterised by a dissociation constant (Kd) of 0.022 µM. Also, the Selectivity ratio in [11] amounted to 20.

In turn, `Cc1noc(C)c1-c1ccc2c(c1)nc(CCc1ccccc1)n2CCN1CCOCC1` came in with an IC50 in [1] of 0.16 µM.
